Test results published in patent EP4759810A1, “PROTAC TARGETING BCL-XL PROTEIN AND USE THEREOF” (BEIJING SUNCELL BIO-MEDICAL CO., LTD., priority 2023, dated 2025).
Like-named read-outs stand apart in the source and are kept apart here.

How the values were obtained:
Bcl-xL protein = target: T1, Bcl-xL protein (Homo sapiens, UniProt Q07817); test: Degradation experiment of Bcl-xL target protein (Western blot in Molt-4 cells); assay type: cell-based; settings: 100 nM, 0, 2, 6, 16 h, GAPDH internal control, Figure 4
T1 construct: host or cells: Molt-4 cells
Experimental: Actively growing and healthy Molt-4 cells were subcultured into a fresh RPMI-1640 medium containing 10% fetal bovine serum, and each PROTAC molecule was added thereto at a final concentration of 100 nM. After drug treatment for the specified times (0, 2, 6, and 16 hours), the cells were collected, the supernatant was discarded by centrifugation, and the cells were washed twice with pre-cooled PBS buffer. Total protein was extracted with a lysis buffer (Servicebio, G2002-100ML), and the protein concentration was normalized by using a BCA protein quantification kit (Servicebio, G2026). Protein samples were mixed with a protein-loading buffer and incubated at 95°C for 5 minutes. Western blotting experiments were performed by using the following antibodies: Bcl-xL (Abcam, catalog number ab32370), diluted at 1:500; GAPDH antibody (Servicebio, catalog number GB15004), diluted at 1:1000; and horseradish peroxidase-conjugated goat anti-rabbit secondary antibody (Servicebio, catalog number GB23303), diluted at 1:5000.

Molt-4 cells [1] = test: Molt-4 cell killing activity test (CCK-8); assay type: cell-based; settings: for EC50: Homo sapiens; for killing Molt-4 cells at different concentrations (Figure 1), in words: 0.001-3 µM, comparison with control molecules
Experimental: (§1) Molt-4 cells were cultured and amplified in 10 cm dishes by using RPMI-1640 medium supplemented with 10% fetal bovine serum. Actively growing and healthy Molt-4 cells were collected, centrifuged at 1000 rpm for 5 minutes, and after removing the supernatant, the cells were resuspended in fresh RPMI-1640 medium containing 10% fetal bovine serum. Cell counting was then performed. The cell density was adjusted to 120,000 cells per milliliter, and 100 µL of the cell suspension was added to each well of a 96-well transparent cell culture plate. It was noted that the edge wells of the 96-well plate were not used for testing; and 300 µL of PBS alone was added to these wells to reduce medium evaporation.
The small molecule compounds to be tested for activity were prepared. A series of small molecule concentration gradients (0.001, 0.003, 0.01, 0.03, 0.1, 0.3, 1, and 3 µM) were pre-set, and a series of 2× drug dilutions for the above concentrations were prepared in RPMI-1640 medium containing 10% fetal bovine serum. 100 µL of the above medium containing the gradient concentrations of the drug was added to each well of a 96-well plate pre-seeded with cells, so that the final drug concentration in each well was the pre-set concentration gradient. Three replicate wells were used for each tested drug concentration. The 96-well plate was placed back in a 37°C incubator, and the cell viability was measured after three days.
The plate was taken out three days after adding the drugs, and 100 µL of pre-prepared CCK-8 working solution was added to each well. The CCK-8 working solution was obtained through diluting a CCK-8 stock solution (C0041, Beyotime) by 10-fold volumn with a serum-free RPMI-1640 medium. The 96-well plates with the added CCK-8 working solution were placed back in the 37°C incubator and incubated for 0.5-2 hours. The plates were then taken out, and the absorbance value (OD value) of each well was measured at a wavelength of 450 nm, and the cell viability in each experimental group was calculated according to the following formula: Relative cell viability (%) = […] × 100%.

Molt-4 cells [2] = test: Detection of E3 enzyme-dependence: Molt-4 cell killing with or without pomalidomide (CCK-8); assay type: cell-based; settings: 10 µM pomalidomide, Figure 2
Experimental: as §1, with “Actively” for “Molt-4 cells were cultured and amplified in 10 cm dishes by using RPMI-1640 medium supplemented with 10% fetal bovine serum. Actively”, “testing,” for “testing;”
Molt-4 cells were plated in duplicate according to the number of the tested small molecules, so as to test the effects with and without the addition of pomalidomide (a competitive ligand specific for E3 ligase), in which one half of the parallel cells was added 10 µM pomalidomide. A series of small molecule concentration gradients (0.001, 0.003, 0.01, 0.03, 0.1, 0.3, 1, and 3 µM) were pre-set, and a series of 2× drug dilutions for the above concentrated were prepared in DMEM medium containing 10% fetal bovine serum. 100 µL of the above DMEM medium containing the gradient concentrations of the drug was added to 96-well plates that have been pre-plated with cells, so that the final drug concentration in each well was the pre-set series of concentrations respectively. Three replicate wells were used for each test drug concentration. The 96-well plates were placed back in a 37°C incubator, and the cell viability was detected after three days.
Cell viability after drug treatment was detected by using the CCK-8 method: three days after adding the drugs, the plates were taken out, and the supernatant was discarded. Then, 100 µL of pre-prepared CCK-8 working solution was added to each well. The CCK-8 working solution was obtained through diluting a CCK-8 stock solution (C0041, Beyotime) by 10-fold volumn with a serum-free DMEM culture medium. The 96-well plates with the added CCK-8 working solution were placed back in the 37°C incubator and incubated for 0.5-2 hours. The plates were then taken out, and the absorbance value (OD value) of each well was measured at a wavelength of 450 nm. The cell viability in each experimental group was calculated according to the following formula: Relative cell viability (%) = (Blank control group - Experimental group) / Blank control group × 100%.

HEF cells = test: Senescent cell killing activity test, HEF cell model (CCK-8); assay type: cell-based, human
Experimental: To avoid replication of the induced senescent cells, low-passage proliferating HEF cells (<10 passages), MRC5 cells (<6 passages), and BJ cells (<10 passages) were used as normal controls. For chemical drug induced senescence, HEF cells were treated with 10 µM etoposide (Selleck, S1225) for 36-48 hours, MRC5 cells were treated with 5 µM bleomycin (Selleck, S1225) for 72 hours, and BJ cells were treated with 10 µg/mL bleomycin for 72 hours. Three days after the treatment, the cells were subcultured in fresh culture medium at a 1:3 ratio for 72 hours before further analysis and use.
Non-senescent and induced-senescent HEF cells, non-senescent and induced-senescent MRC5 cells, and non-senescent and induced-senescent BJ cells were respectively digested with trypsin, and centrifuged at 1000 rpm for 5 minutes. Then, the supernatant was removed, and the cells were resuspended in fresh DMEM culture medium containing 10% fetal bovine serum for counting. The cell density was adjusted so that the non-senescent cell density was 4000 cells/100 µL and the senescent cell density was 7000 cells/100 µL. 100 µL of the cell suspension was added to each well of a 96-well transparent cell culture plate. It was noted that the edge wells of the 96-well plate were not used as testing wells, and 300 µL of PBS alone was added to these wells to reduce evaporation of the culture medium. The 96-well plates with the well-plated cells were placed back in a 37°C incubator for overnight culture until the cells adhered. On the next day, the small molecule compounds to be tested were prepared and added after the cells had adhered.
A series of small molecule concentration gradients (0.01, 0.03, 0.1, 0.3, 1, 3, 10, and 25 µM) were pre-set, and a series of 2× drug dilutions for the above concentrations were prepared in DMEM culture medium containing 10% fetal bovine serum. 100 µL of the above DMEM culture medium containing the gradient concentrations of the drug was added to each well of the 96-well plate that had been well-plated with cells, so that the final drug concentration in each well was the pre-set series of concentrations. Three replicate wells were used for each test drug concentration. The 96-well plates were placed back in a 37°C incubator, and cell viability was measured after three days.
Three days after adding the drug, the plates were taken out, and the supernatant was discarded. 100 µL of pre-prepared CCK-8 working solution was added to each well. The CCK-8 working solution was obtained through diluting a CCK-8 stock solution (C0041, Beyotime) with a serum-free DMEM culture medium by 10-fold volumn. The 96-well plates containing the CCK-8 working solution were placed back in the 37°C incubator and incubated for 0.5-2 hours. The plates were then taken out, and the absorbance value (OD value) of each well was measured at a wavelength of 450 nm. The cell viability in each experimental group was calculated according to the following formula: Relative cell viability (%) = (Blank control group - Experimental group) / Blank control group × 100%.

[3] = 72 h, Molt-4 cells, three days, CCK-8, read-out: EC50 (Molt-4)
[4] = Bcl-xL-positive Molt-4 cells, read-out: cellular activity / killing activity (Molt-4 cells)

T1 sequence (Q07817 whole entry): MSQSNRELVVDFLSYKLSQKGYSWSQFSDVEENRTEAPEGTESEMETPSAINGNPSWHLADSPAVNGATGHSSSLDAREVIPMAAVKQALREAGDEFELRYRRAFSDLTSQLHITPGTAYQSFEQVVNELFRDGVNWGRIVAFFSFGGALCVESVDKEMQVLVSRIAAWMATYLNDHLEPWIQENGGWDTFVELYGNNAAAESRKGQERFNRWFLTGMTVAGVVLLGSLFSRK

Row | SMILES | degradation of the Bcl-xL protein (Bcl-xL protein) | EC50 (Molt-4 cells [1]; [3]) | EC50 (Molt-4 cells [1]; [4]) | killing Molt-4 cells at different concentrations (Figure 1), in words (Molt-4 cells [1]) | cell killing activity after addition of pomalidomide (+poma) compared to without (-poma) (Molt-4 cells [2]) | killing senescent HEF cells (HEF cells; etoposide-induced senescent vs normal HEF cells, Figures 3A-3F) | toxicity on normal non-senescent HEF cells (HEF cells; higher concentration (25 µM))
1 | Cc1cc([C@H](C(=O)N2C[C@H](O)C[C@H]2C(=O)N[C@@H](CC(=O)N2CCC(CN3CCN(CC#Cc4ccc(OCCCc5ccc(N6CCc7cccc(C(=O)Nc8nc9ccccc9s8)c7C6)nc5C(=O)O)c(F)c4)CC3)CC2)c2ccc(-c3scnc3C)cc2)C(C)C)on1 [APH7] | had the ability to degrade the Bcl-xL protein | 10 to 100 nM | – | – | – | – | –
2 | Cc1cc([C@H](C(=O)N2C[C@H](O)C[C@H]2C(=O)N[C@@H](CC(=O)N2CCC(CCN3CCN(CC#Cc4ccc(OCCCc5ccc(N6CCc7cccc(C(=O)Nc8nc9ccccc9s8)c7C6)nc5C(=O)O)c(F)c4)CC3)CC2)c2ccc(Cl)cc2)C(C)C)on1 [APH105] | had the ability to degrade the Bcl-xL protein | < 10 nM | < 10 nM | – | – | – | –
3 | CC(C)(C)[C@H](NC(=O)C1(F)CC1)C(=O)N1C[C@H](O)C[C@H]1C(=O)N[C@@H](CC(=O)N1CCC(CCN2CCN(CC#Cc3ccc(OCCCc4ccc(N5CCc6cccc(C(=O)Nc7nc8ccccc8s7)c6C5)nc4C(=O)O)c(F)c3)CC2)CC1)c1ccc(Cl)cc1 [APH106] | had the ability to degrade the Bcl-xL protein | 10 to 100 nM | – | – | – | – | –
4 | CS(=O)(=O)NC(=O)c1nc(N2CCc3cccc(C(=O)Nc4nc5ccccc5s4)c3C2)ccc1CCCOc1ccc(C#CCN2CCN(CC3CCN(c4ccc(N5CCC(=O)NC5=O)cc4)CC3)CC2)cc1F [APQ10-2] | had the ability to degrade the Bcl-xL protein | < 10 nM | < 10 nM | comparable to A-1331852 | significantly reduced cell killing activity | – | –
5 | O=C1CCN(c2cc(F)c(N3CCN(CC#Cc4ccc(OCCCc5ccc(N6CCc7cccc(C(=O)Nc8nc9ccccc9s8)c7C6)nc5C(=O)O)c(F)c4)CC3)cc2F)C(=O)N1 [APQ904] | had the ability to degrade the Bcl-xL protein | < 10 nM | < 10 nM | comparable to A-1331852 | significantly reduced cell killing activity | – | –
6 | O=C1CCC(N2C(=O)c3cccc(NCCOCCOCCOCCOCCN4CCN(CC#Cc5ccc(OCCCc6ccc(N7CCc8cccc(C(=O)Nc9nc%10ccccc%10s9)c8C7)nc6C(=O)O)c(F)c5)CC4)c3C2=O)C(=O)N1 (stereo not shown) [BF4] | had the ability to degrade the Bcl-xL protein | 10 to 100 nM | – | – | significantly reduced cell killing activity | efficiently and selectively kill senescent HEF cells | no toxicity on normal non-senescent HEF cells
